The text below walks through data of patent US9802904B2, “Inhibitors of the USP1/UAF1 deubiquitinase complex and uses thereof” (The United States of America, as represented by the …, priority 2012, dated 2017).

Molecules are shown by their SMILES. Where two headings read alike, the source gives them in different places.

One assay deals with USP1/UAF1 (Homo sapiens (Human), UniProt O94782). Kind of assay: qHTS assay for USP1/UAF1 activity (fluorometric, ubiquitin-rhodamine110). The class given is biochemical. The following applies: USP1/UAF1 inhibition. How it is done: USP1/UAF1 activity was monitored in a fluorometric assay using ubiquitin-rhodamine110. Enzymatic reactions were conducted in an assay buffer (50 mM HEPES, pH 7.8, 0.5 mM EDTA, 100 mM NaCl, 1 mM TCEP, 0.1 mg/mL BSA, and 0.01% Tween-20) that contained 1 nM USP1/UAF1. […] The plates were incubated for 15 min to attain equilibrium, and then the enzymatic reaction was initiated by dispensing 1 μL of Ub-Rho solution (150 nM final concentration). The plates were directly transferred to a ViewLux high-throughput CCD imager (PerkinElmer), where kinetic measurements of rhodamine fluorescence were acquired using a 480 nm excitation/540 nm emission filter set. […] All screening operations were performed on a fully integrated robotic system (Kalypsys Inc., San Diego, Calif.) as described elsewhere. Plates containing DMSO only were included approximately every 50 plates throughout the screen to monitor any systematic trend in the assay signal associated with reagent dispenser variation or decrease in enzyme specific activity. PubChem AID: 651605.
Sequence of USP1/UAF1 (O94782 whole entry): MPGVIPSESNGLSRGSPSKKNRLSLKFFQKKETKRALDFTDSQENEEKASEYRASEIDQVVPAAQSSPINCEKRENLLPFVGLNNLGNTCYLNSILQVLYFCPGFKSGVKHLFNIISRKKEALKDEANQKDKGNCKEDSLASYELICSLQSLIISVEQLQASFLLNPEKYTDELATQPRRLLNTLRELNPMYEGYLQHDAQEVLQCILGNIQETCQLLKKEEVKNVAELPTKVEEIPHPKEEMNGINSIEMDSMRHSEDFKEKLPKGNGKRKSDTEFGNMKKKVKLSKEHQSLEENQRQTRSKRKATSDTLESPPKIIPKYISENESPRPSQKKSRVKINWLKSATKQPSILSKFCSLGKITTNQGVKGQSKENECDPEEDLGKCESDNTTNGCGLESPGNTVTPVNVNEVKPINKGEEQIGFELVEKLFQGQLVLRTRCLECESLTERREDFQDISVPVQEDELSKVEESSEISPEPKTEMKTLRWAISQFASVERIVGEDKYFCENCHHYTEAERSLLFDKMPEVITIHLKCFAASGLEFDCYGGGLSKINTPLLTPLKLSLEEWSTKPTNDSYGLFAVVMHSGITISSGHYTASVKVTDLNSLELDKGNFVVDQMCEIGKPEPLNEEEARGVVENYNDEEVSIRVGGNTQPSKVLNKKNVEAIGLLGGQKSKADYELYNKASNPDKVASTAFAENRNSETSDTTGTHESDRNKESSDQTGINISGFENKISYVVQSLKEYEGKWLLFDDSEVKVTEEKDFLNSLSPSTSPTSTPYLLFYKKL
Sequence of USP1/UAF1 (Q8TAF3 whole entry partner): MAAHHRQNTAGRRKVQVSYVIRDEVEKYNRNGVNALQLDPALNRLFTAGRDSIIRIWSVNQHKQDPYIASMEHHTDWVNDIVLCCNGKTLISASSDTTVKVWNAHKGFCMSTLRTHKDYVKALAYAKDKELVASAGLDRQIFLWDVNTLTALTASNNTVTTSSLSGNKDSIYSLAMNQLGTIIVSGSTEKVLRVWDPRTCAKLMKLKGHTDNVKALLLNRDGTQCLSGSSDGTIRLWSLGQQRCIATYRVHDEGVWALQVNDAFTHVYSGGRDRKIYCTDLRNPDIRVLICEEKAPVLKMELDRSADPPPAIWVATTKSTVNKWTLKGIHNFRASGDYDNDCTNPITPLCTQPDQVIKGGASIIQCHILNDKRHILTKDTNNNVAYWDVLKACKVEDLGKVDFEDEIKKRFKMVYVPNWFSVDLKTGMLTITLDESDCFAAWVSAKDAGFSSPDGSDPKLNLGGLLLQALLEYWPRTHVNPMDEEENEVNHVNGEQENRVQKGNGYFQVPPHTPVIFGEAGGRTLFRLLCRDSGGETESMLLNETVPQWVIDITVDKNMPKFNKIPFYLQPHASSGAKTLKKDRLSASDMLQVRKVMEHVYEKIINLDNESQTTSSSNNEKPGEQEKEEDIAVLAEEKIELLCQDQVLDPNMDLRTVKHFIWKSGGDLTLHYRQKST
(qHTS replaces the single test concentration by a dilution series.)

The test system of a further assay is H596 cells. The assay can be described thus: Cytotoxicity assay in H596 cells (CCK-8 cell viability). The following applies: alone, 48 hr, read-out: EC50 of killing H596 cells. The class given is cell-based, human. On the procedure:
(§1) The H596 [human non-small cell lung cancer (NSCLC)] cell line was cultured in RFMI-1640 medium containing 10% fetal bovine serum (FBS) at 37° C. and 5% CO2. The HEK293T (human embryonic kidney 293T), U2OS (human osteosarcoma), and HCT116 (human colon cancer) cell lines were cultured in Dulbecco's modified Eagle's medium (DMEM) supplemented with 10% FBS at 37° C. and 5% CO2. All culture mediums contain 100 units/mL penicillin and 0.1 mg/mL streptomycin as antibiotics.
(§2) For cytotoxicity assays, 5×10^3 H596 cells were seeded in each well of the 96-well plate and grown for 24 hr in humidified incubator. […] In the combination assay, cisplatin was dissolved in saline solution and compound 81 was dissolved in DMSO. Equal volume of above solutions was added to each well and cells were incubated for 48 hr. Cells treated with equal volume of DMSO and saline were used as control and designated as 100% viability. The cell viability was measured by CCK-8 solution (Dojindo Molecular Technologies, Inc) as previously described (Chen, J., et al.).

In a further assay the test system is U2OS cells. Kind of assay: Cytotoxicity assay in osteosarcoma U2OS cell line. Type of assay: cell-based, human. The following applies: alone, read-out: EC50 of killing U2OS cells. How it is done: as §1, §2
Cytotoxicity assays were run as described in Example 6 using the cisplatin-sensitive NSCLC H460 cell line and the osteosarcoma U2OS cell line.

For assay [1], the system named is USP1/UAF1 cellular activity in HEK293T cells. Kind of assay: PCNA and FANCD2 monoubiquitination in HEK293T cells (Western blot). Type of assay: cell-based, human. The following applies: 30 μM compound 81, 6 hr, as compared to control. On the procedure:
(§3) HEK293T or H596 cells were plated in 10 cm dishes and synchronized in S-phase with the double-thymidine block method as described previously (Chen et al., Chemistry & Biology, 2011. 18(11): 1390-400). […] Negative control cells were treated with an equal volume of DMSO and saline (0.9% NaCl). After 6 hr at 37° C., cells were harvested and lysed. Cell extracts were separated on SDS-PAGE and transferred to nitrocellulose membrane. The membranes were then blotted with PCNA antibody or FANCD2 antibody, followed by incubation with HRP-conjugated anti-mouse secondary antibody. Images were quantified in FluorChem Q software (Imgen Technologies).
(In general: In western blotting, separated proteins are transferred to a membrane and probed.)

For assay [2], the system named is USP1/UAF1 cellular activity in H596 cells. Kind of assay: PCNA and FANCD2 monoubiquitination in H596 cells (Western blot). Type of assay: cell-based, human. The following applies: 30 μM compound 81, 6 hr, as compared to control. How it is done:
as §3

Consider `CC(C)c1ccccc1C1=NCCC(NCc2ccc(-c3ccccc3)cc2)=N1` [Compound 58], for which half-maximal inhibition against USP1/UAF1 (Table 3) (IC50) was put at 120 nM.

As to `CCc1cnc(-c2ccccc2C(C)C)nc1NCc1ccc(-c2ccccc2)cc1` [Compound 60], 43 nM corresponded to half-maximal inhibition against USP1/UAF1 (Table 3) (IC50).

Turning to `CC(C)c1ccccc1-c1ncc(F)c(NCc2ccc(-c3ccccc3)cc2)n1` [Compound 61], at USP1/UAF1 (Table 3), the IC50 was 61 nM.

`CC(C)c1ccccc1-c1ncc(N)c(NCc2ccc(-c3ccccc3)cc2)n1` [Compound 62] showed an IC50 on USP1/UAF1 (Table 3) of 270 nM.

The compound `CC(C)c1ccccc1-c1ncc(N(C)C)c(NCc2ccc(-c3ccccc3)cc2)n1` [Compound 63] registered an IC50 against USP1/UAF1 (Table 3) of 150 nM.

The compound `CSc1cnc(-c2ccccc2C(C)C)nc1NCc1ccc(-c2ccccc2)cc1` [Compound 64] had an IC50 against USP1/UAF1 (Table 3) of 86 nM.

`Cc1cc(NCc2ccc(-c3ccccc3)cc2)nc(-c2ccccc2C(C)C)n1` [Compound 65] came in with an IC50 at USP1/UAF1 (Table 3) of 480 nM.

With `Cc1nc(-c2ccccc2C(C)C)nc(NCc2ccc(-c3ccccc3)cc2)c1C` [Compound 66], at USP1/UAF1 (Table 3), inhibition was half-maximal at 140 nM (IC50).

The compound `Cc1cccc(CNc2nc(-c3ccccc3C(C)C)ncc2C)c1` [Compound 67] came in with an IC50 at USP1/UAF1 (Table 4) of 140 nM.

On to `Cc1cnc(-c2ccccc2C(C)C)nc1NCc1cccnc1` [Compound 68], for which the IC50 at USP1/UAF1 (Table 4) stood at 2200 nM.

On USP1/UAF1 (Table 4), `Cc1cnc(-c2ccccc2C(C)C)nc1NCc1cccs1` [Compound 69] displayed an IC50 of 220 nM.

Consider `Cc1cccc(C(CO)Nc2nc(-c3ccccc3C(C)C)ncc2C)c1` (stereo not drawn) [Compound 70], for which half-maximal inhibition on USP1/UAF1 (Table 4) (IC50) was put at 1100 nM.

On USP1/UAF1 (Table 4), `Cc1cnc(-c2ccccc2C(C)C)nc1NCC1CCN(C)CC1` [Compound 71] came in with an IC50 of 30000 nM.

With `Cc1ccc(-c2ccc(CNc3nc(-c4ccccc4C(C)C)ncc3C)cc2)cn1` [Compound 72], the IC50 on USP1/UAF1 (Table 4) amounted to 43 nM.

As for `Cc1cnc(-c2ccccc2C(C)C)nc1NCc1ccc(-c2ccnc(C(F)(F)F)c2)cc1` [Compound 73], the midpoint of inhibition at USP1/UAF1 (Table 4), the IC50, lay at 380 nM.

Consider `Cc1cnc(-c2ccccc2C(C)C)nc1NCC1CCN(c2cccnc2)CC1` [Compound 74], for which the half-inhibitory concentration (IC50) against USP1/UAF1 (Table 4) is 48 nM.

For `Cc1ccc(N2CCC(CNc3nc(-c4ccccc4C(C)C)ncc3C)CC2)cn1` [Compound 75], at USP1/UAF1 (Table 4), the IC50 turned out to be 2200 nM.

Compound `Cc1cnc(-c2ccccc2C(C)C)nc1NCC1CCN(c2cnccn2)CC1` [Compound 76] registered an IC50 at USP1/UAF1 (Table 4) of 120 nM.

In the case of `Cc1cnc(-c2ccccc2C(C)C)nc1NCC1CC(c2cccnc2)C1` (stereo not drawn) [Compound 77], on USP1/UAF1 (Table 4), half-maximal inhibition (IC50) required 6800 nM.

Consider `Cc1cnc(-c2ccccc2C(C)C)nc1NCC1CCN(c2cccnc2)C1` (stereo not drawn) [Compound 78], for which 480 nM corresponded to half-maximal inhibition against USP1/UAF1 (Table 4) (IC50).

Regarding `Cc1cnc(-c2ccccc2C(C)C)nc1NCc1ccc(-c2ccc(F)nc2)cc1` [Compound 79], at USP1/UAF1 (Table 4), the IC50 was 61 nM.

For `Cc1cnc(-c2ccccc2C(C)C)nc1NCc1ccc(C2CCCNC2)cc1` (stereo not drawn) [Compound 80], at USP1/UAF1 (Table 4), inhibition was half-maximal at 7600 nM (IC50).

As to `Cc1cnc(-c2ccccc2C(C)C)nc1NCc1ccc(-n2ccnn2)cc1` [Compound 81, N-(4-(1H-1,2,3-triazol-1-yl)benzyl)-2-(2-isopropylphenyl)-5-methylpyrimidin-4-amine], the EC50 in the assay on H596 cells (Homo sapiens, NCI-H596) was greater than 10000 nM; in the assay with U2OS cells (Homo sapiens, U2OS) it was greater than 10000 nM. Also, the “PCNA and FANCD2 monoubiquitination” value in assay [1] was “increase in PCNA and FANCD2 monoubiquitination”; in assay [2] it was “increase in PCNA and FANCD2 monoubiquitination”.

As to `Cc1cnc(-c2ccccc2C(C)C)nc1NCc1ccc(-c2cnn[nH]2)cc1` [Compound 82], at USP1/UAF1 (Table 4), 240 nM corresponded to half-maximal inhibition (IC50).

The compound `Cc1cnc(-c2ccccc2C(C)C)nc1NCc1ccc(-c2nnn[nH]2)cc1` [Compound 83] displayed an IC50 on USP1/UAF1 (Table 4) of 7600 nM.

Consider `Cc1cnc(-c2ccccc2C(C)C)nc1NCc1ccc(C(N)=O)cc1` [Compound 84], for which the IC50 at USP1/UAF1 (Table 4) came to 6800 nM.

As to `Cc1cnc(-c2ccccc2C(C)C)nc1NCC1CCN(C2COC2)CC1` [Compound 85], the IC50 against USP1/UAF1 (Table 4) is 15000 nM.

`Cc1cnc(-c2ccccc2C(C)C)nc1NCc1ccc(-c2cccnc2)cc1` [Compound 86]: the IC50 at USP1/UAF1 (Table 4) was 61 nM.

As for `Cc1cnc(-c2ccccc2C(C)C)nc1NCc1ccc(-c2cc[nH]n2)cc1` [Compound 88], on USP1/UAF1 (Table 4), the IC50 was 150 nM.

Consider `Cc1cnc(-c2ccccc2C(C)C)nc1NC1(c2ccc(-c3cccnc3)cc2)CC1` [Compound 89], for which the IC50 against USP1/UAF1 (Table 4) was determined as 34 nM.

With `Cc1cnc(-c2ccccc2C(C)C)nc1NC(C)(C)c1ccc(-c2cccnc2)cc1` [Compound 90], at USP1/UAF1 (Table 4), the IC50 worked out at 190 nM.

Regarding `N.N.[Cl][Pt][Cl]` [cisplatin, reference compound], the EC50 in the assay with H596 cells stood at 486 nM; in the assay with U2OS cells it was 629 nM.

By IC50 is commonly meant the concentration needed to halve the response being measured. By EC50 is commonly meant the concentration at which the effect is half-maximal.
